Test results published in ChEMBL document CHEMBL2202954, “The effect of PLC-γ2 inhibitors on the growth of human tumour cells” (2012).

Tests used:
Type in all cases: functional
MOLT-4 = assay: Cytotoxicity against human MOLT4 cells assessed as cellular growth at 10 uM by SRB assay
[1] = Cytotoxicity against human NCI-ADR-RES cells assessed as cellular growth at 10 uM by SRB assay
K562 = assay: Cytotoxicity against human K562 cells assessed as cellular growth at 10 uM by SRB assay
TK-10 = assay: Cytotoxicity against human TK10 cells assessed as cellular growth at 10 uM by SRB assay
MDA-MB-468 = assay: Cytotoxicity against human MDA-MB-468 cells assessed as cellular growth at 10 uM by SRB assay
BT-549 = assay: Cytotoxicity against human BT549 cells assessed as cellular growth at 10 uM by SRB assay
CCRF-CEM = assay: Cytotoxicity against human CCRF-CEM cells assessed as cellular growth at 10 uM by SRB assay
MDA-MB-435 = assay: Cytotoxicity against human MDA-MB-435 cells assessed as cellular growth at 10 uM by SRB assay
PC-3 = assay: Cytotoxicity against human PC3 cells assessed as cellular growth at 10 uM by SRB assay
RXF 393 = assay: Cytotoxicity against human RXF393 cells assessed as cellular growth at 10 uM by SRB assay
HCC 2998 = assay: Cytotoxicity against human HCC2998 cells assessed as cellular growth at 10 uM by SRB assay
OVCAR-3 = assay: Cytotoxicity against human OVCAR3 cells assessed as cellular growth at 10 uM by SRB assay
A549 = assay: Cytotoxicity against human A549 cells assessed as cellular growth at 10 uM by SRB assay
HL-60(TB) = assay: Cytotoxicity against human HL-60(TB) cells assessed as cellular growth at 10 uM by SRB assay
M14 = assay: Cytotoxicity against human M14 cells assessed as cellular growth at 10 uM by SRB assay
HT-29 = assay: Cytotoxicity against human HT-29 cells assessed as cellular growth at 10 uM by SRB assay
ACHN = assay: Cytotoxicity against human ACHN cells assessed as cellular growth at 10 uM by SRB assay
SW-620 = assay: Cytotoxicity against human SW620 cells assessed as cellular growth at 10 uM by SRB assay
UACC-62 = assay: Cytotoxicity against human UACC62 cells assessed as cellular growth at 10 uM by SRB assay
OVCAR-8 = assay: Cytotoxicity against human OVCAR8 cells assessed as cellular growth at 10 uM by SRB assay

SMILES	Activity (MOLT-4) [%]	Activity [1] [%]	Activity (K562) [%]	Activity (TK-10) [%]	Activity (MDA-MB-468) [%]	Activity (BT-549) [%]	Activity (CCRF-CEM) [%]	Activity (MDA-MB-435) [%]	Activity (PC-3) [%]	Activity (RXF 393) [%]	Activity (HCC 2998) [%]	Activity (OVCAR-3) [%]	Activity (A549) [%]	Activity (HL-60(TB)) [%]	Activity (M14) [%]	Activity (HT-29) [%]	Activity (ACHN) [%]	Activity (SW-620) [%]	Activity (UACC-62) [%]	Activity (OVCAR-8) [%]
COc1ccc2nc(NC(=O)c3ccc(F)cc3)sc2c1	87.45	89.25	82.42	98.88	102.55	104.05	91.13	96.73	88.31	110.56	87.56	101.58	47.59	108.33	106.56	90.2	88.79	101.19	88.71	94.61
O=C(Nc1nc2ccccc2s1)c1ccc(F)cc1	100.31	95.74	89.96	125.36	94.15	109.49	100.74	100.56	96.56	106.77	69.88	103.91	98.36	111.31	109.51	108.47	98.03	112.1	89.52	109.5
Clc1ccc(-c2nc(-c3cccs3)no2)cc1	86.35	106.94	101.77	109.61	3.37	111.04	78.29	111.2	103.14	112.7	32.91	103.69	94.07	98.45	105.16	106.39	96.33	105.71	89.8	106.56
Clc1cccc(-c2nc(-c3cccs3)no2)c1	96.35	103.45	100.73	74.63	44.69	101.91	91.91	106.73	84.44	114.21	102.03	102.94	94.77	108.47	105.36	95.99	101.08	91.04	88.07	101.14
c1ccc(-c2nc(-c3cccs3)no2)cc1	92.81	116.69	100.51	97.25	83.74	105.93	97.84	113.41	96.07	122.84	117.01	105.28	106.51	103.76	111.09	108.03	102.77	101.1	93.02	105.37
COc1ccc(Cl)cc1C(=O)Nc1nc2ccc(Cl)cc2s1	95.65	101.67	86.76	126.89	76.66	97.73	86.4	97.59	84.45	95.02	102.29	102.8	76.66	103.5	95.14	109.45	85.89	100.98	91.53	88.9
O=C(Nc1nc2ccc(Cl)cc2s1)c1ccc(Cl)cc1	95.76	100.28	96.27	131.87	114.39	106.78	96.23	90.92	89.01	111.55	106.96	112.95	94.26	100.76	106.22	107.3	96.94	103.76	101.97	98.61
O=C(Nc1nc2ccc(Cl)cc2s1)c1ccc(Cl)cc1Cl	93.88	98.55	86.31	88.34	105.42	111.68	99.34	94.59	97.1	112.15	97.08	109.17	95.4	92.55	115.13	94.25	109.65	111.18	96.19	97.79
COc1cccc(C(=O)Nc2nc3ccc(Cl)cc3s2)c1	83.68	75.07	49	88.7	61.26	101.44	81.01	34	78.16	102.21	93.56	100.09	74.01	68.73	102.54	80.12	91.34	88.38	87.44	98.65
O=S(=O)(Oc1ccc(-c2cnc3ccccc3n2)cc1)c1ccc2ccccc2c1	89.91	104.07	90.95	94.33	85.1	122.04	90.35	95.36	87.31	110	107.48	107.67	102.43	87.7	100.37	82.27	118.15	100.52	82.67	110.71
O=S(=O)(Oc1ccc(-c2cnc3ccccc3n2)cc1)c1ccccc1	75.6	96.02	81.89	82.7	84.46	96.82	85.64	96.88	89.87	102.24	99.83	112.06	95.36	94.23	106.54	78.71	103.61	99.76	78.48	100.22
